Bounds are passed on as bounds.

Holding throughout (type): functional
The subject of test [1] is Pyricularia grisea. The test can be described thus: Fungicidal activity against Magnaporthe grisea in rice plant assessed as prevention from rice blast disease measured as lesions under greenhouse at 50 ppm for 8 days by soil drench compound treated before inoculation.
The test system of test [2] is Pyricularia grisea. The test can be described thus: Fungicidal activity against Magnaporthe grisea in rice plant assessed as prevention from rice blast disease measured as lesions under greenhouse at 200 ppm for 8 days by foliar spray compound treated before inoculation.
Test [3] concerns Pyricularia grisea. Put plainly: Fungicidal activity against Magnaporthe grisea in rice plant assessed as prevention from rice blast disease measured as lesions under greenhouse at > 200 ppm for 8 days by foliar spray compound treated before inoculation.
Test [4] deals with Pyricularia grisea. Put plainly: Fungicidal activity against Magnaporthe grisea in rice plant assessed as prevention from rice blast disease measured as lesions under greenhouse at > 200 ppm for 8 days by soil drench compound treated before inoculation.
For test [5], the system named is Pyricularia grisea. The test can be described thus: Fungicidal activity against Magnaporthe grisea in rice plant assessed as prevention from rice blast disease measured as lesions under greenhouse at 3.1 ppm for 8 days by foliar spray compound treated before inoculation.
The subject of test [6] is Pyricularia grisea. The test can be described thus: Fungicidal activity against Magnaporthe grisea in rice plant assessed as prevention from rice blast disease measured as lesions under greenhouse at 200 ppm for 8 days by soil drench compound treated before inoculation.
The test system of test [7] is Pyricularia grisea. The test can be described thus: Fungicidal activity against Magnaporthe grisea in rice plant assessed as prevention from rice blast disease measured as lesions under greenhouse at 50 ppm for 8 days by foliar spray compound treated before inoculation.

In the case of `CC(NC(=O)C(Br)(C#N)C(C)(C)C)c1ccc(Cl)cc1` (stereo not drawn), the Activity entry in test [1] and in test [2] was “<=10%” in each case. Turning to `CCC(C#N)(CC)C(=O)NC(C)c1ccc(Cl)cc1` (stereo not drawn), the Activity result in test [3] and in test [4] was “<=10%” throughout.

Consider `CC(C)NC(=O)C(C#N)C(C)(C)C` (stereo not drawn), for which the Activity entry in test [3] and in test [4] was “<=10%” throughout. For `CC(NC(=O)C(C#N)C(C)(C)C)c1ccc(C(F)(F)F)cc1` (stereo not drawn), the Activity entry in test [1] and in test [5] was “<=10%” in each case. Take `CC(NC(=O)C([S+](C)[O-])C(C)(C)C)c1ccc(Cl)cc1` (stereo not drawn): the Activity result in test [3] and in test [4] was “<=10%” each time. With `CC(NC(=O)C(C#N)=C1CCCC1)c1ccc(Cl)cc1` (stereo not drawn), the Activity entry in test [6] and in test [2] was “<=10%” throughout. `CC(NC(=O)C(C#N)C(C)(C)C)c1ccc(Cl)nc1` (stereo not drawn): the Activity entry in test [4] and in test [2] was “<=10%” each time. For `CC(C#N)C(=O)NC(C)c1ccc(Cl)cc1` (stereo not drawn), the Activity entry in test [3] and in test [4] was “<=10%” each time. As to `CC(NC(=O)C(Br)C(C)(C)C)c1ccc(Cl)cc1` (stereo not drawn), the Activity entry in test [6] is recorded as “<=10%”.

Consider `CCC(NC(=O)C(C#N)C(C)(C)C)c1ccc(Cl)cc1` (stereo not drawn), for which the Activity result in test [3] and in test [4] was “<=10%” in each case. For `CC(NC(=O)C(C#N)C(C)(C)C)c1ccc(OC(F)(F)C(F)F)cc1` (stereo not drawn), the Activity entry in test [6] and in test [2] was “<=10%” each time. In the case of `CC(NC(=O)C(C#N)C(C)(C)C)c1ccc(Cl)c(Cl)c1` (stereo not drawn), the Activity result in test [1] and in test [7] was “<=10%” in each case. Regarding `CC(NC(=O)C(C#N)C(C)(C)C)c1ccc(Cl)cc1Cl` (stereo not drawn), the Activity result in test [1] and in test [5] was “<=10%” each time. In the case of `CC(C)C(C)NC(=O)C(C#N)C(C)(C)C` (stereo not drawn), the Activity entry in test [3] and in test [4] was “<=10%” in each case. Consider `CCC(CC)C(C#N)C(=O)NC(C)c1ccc(Cl)cc1` (stereo not drawn), for which the Activity result in test [1] and in test [5] was “<=10%” in each case. For `CC(C)(C)C(C#N)C(=O)NCc1ccc(Cl)cc1` (stereo not drawn), the Activity result in test [6] and in test [2] was “<=10%” in each case. Regarding `CC(NC(=O)C(C#N)C(C)(C)C)c1ccc(Cl)cn1` (stereo not drawn), the Activity result in test [3] and in test [4] was “<=10%” throughout. With `CC(NC(=O)C(O)C(C)(C)C)c1ccc(Cl)cc1` (stereo not drawn), the Activity result in test [3], in test [4] and in test [2] was “<=10%” in each case. Take `CC(NC(=O)C1(C#N)CCCCC1)c1ccc(Cl)cc1` (stereo not drawn): the Activity result in test [3] and in test [4] was “<=10%” in each case. Consider `CC(Cc1ccc(Cl)cc1)NC(=O)C(C#N)C(C)(C)C` (stereo not drawn), for which the Activity entry in test [4] and in test [2] was “<=10%” each time.

In the case of `CC(NC(=O)C(C#N)c1ccccc1)c1ccc(Cl)cc1` (stereo not drawn), the Activity result in test [3] and in test [4] was “<=10%” in each case. Turning to `COC(C(=O)NC(C)c1ccc(Cl)cc1)C(C)(C)C` (stereo not drawn), the Activity entry in test [3], in test [4] and in test [2] was “<=10%” each time.

For `CC(C)(C)C(C#N)C(=O)NCCc1ccc(Cl)cc1` (stereo not drawn), the Activity entry in test [4] and in test [2] was “<=10%” throughout. Turning to `C#CC(C(=O)NC(C)c1ccc(Cl)cc1)C(C)(C)C` (stereo not drawn), the Activity entry in test [4] and in test [2] was “<=10%” each time. For `CC(C)(C)C(C#N)C(=O)Nc1ccc(Cl)cc1` (stereo not drawn), the Activity result in test [3] and in test [4] was “<=10%” in each case. Turning to `CC(NC(=O)C(C#N)C(C)(C)C)c1ccc(Cl)s1` (stereo not drawn), the Activity entry in test [4] and in test [2] was “<=10%” each time. Take `CC(C)=C(C#N)C(=O)NC(C)c1ccc(Cl)cc1` (stereo not drawn): the Activity result in test [3] and in test [4] was “<=10%” in each case. On to `CSC(C(=O)NC(C)c1ccc(Cl)cc1)C(C)(C)C` (stereo not drawn), for which the Activity result in test [4] and in test [2] was “<=10%” throughout.

For the compound `COc1ccc(C(C)NC(=O)C(C#N)C(C)(C)C)cc1` (stereo not drawn), the Activity result in test [6] and in test [2] was “<=10%” throughout. `CCC(C)C(C#N)C(=O)NC(C)c1ccc(Cl)cc1` (stereo not drawn): the Activity entry in test [1] and in test [7] was “<=10%” each time. As to `C=CC(C)(C)C(C#N)C(=O)NC(C)c1ccc(Cl)cc1OC` (stereo not drawn), the Activity result in test [1] and in test [5] was “<=10%” in each case. As for `CC(NC(=O)C1(C#N)CCCC1)c1ccc(Cl)cc1` (stereo not drawn), the Activity entry in test [3] and in test [4] was “<=10%” each time. As for `CC(NC(=O)C(C#N)C(C)C)c1ccc(Cl)cc1` (stereo not drawn), the Activity result in test [1] and in test [2] was “<=10%” each time. Turning to `Cc1ccc(C(C)NC(=O)C(C#N)C(C)(C)C)cc1` (stereo not drawn), the Activity entry in test [1] and in test [5] was “<=10%” each time. With `CC(NC(=O)C(C#N)C(C)(C)C)c1ccc(OC(F)F)cc1` (stereo not drawn), the Activity entry in test [1] and in test [7] was “<=10%” each time. On to `CC(NC(=O)C(C)(C)C#N)c1ccc(Cl)cc1` (stereo not drawn), for which the Activity entry in test [3] and in test [4] was “<=10%” throughout. Take `CC(NC(=O)C(C#N)=C1CCCCC1)c1ccc(Cl)cc1` (stereo not drawn): the Activity result in test [3] and in test [4] was “<=10%” throughout.

Turning to `COC(NC(=O)C(C#N)C(C)(C)C)c1ccc(Cl)cc1` (stereo not drawn), the Activity entry in test [3] and in test [4] was “<=10%” throughout. For the compound `CC(NC(=O)C(C#N)C(C)(C)C)c1ccccc1` (stereo not drawn), the Activity result in test [4] and in test [2] was “<=10%” in each case. As to `CC(NC(=O)C(C)(C#N)C(C)(C)C)c1ccc(Cl)cc1` (stereo not drawn), the Activity entry in test [4] and in test [2] was “<=10%” each time.

As to `CC(NC(=O)C1(C#N)CC1(C)C)c1ccc(Cl)cc1` (stereo not drawn), the Activity result in test [3] and in test [4] was “<=10%” each time. `C=CC(C)(C)C(C#N)C(=O)NC(C)c1ccc(Cl)cc1C` (stereo not drawn): in test [4], the Activity result is given as “<=10%”. In the case of `CC(NC(=O)C(C(C)(C)C)S(C)(=O)=O)c1ccc(Cl)cc1` (stereo not drawn), the Activity entry in test [4] and in test [2] was “<=10%” in each case. For the compound `CC(NC(=O)C(C#N)C(C)(C)C)c1cccc(Cl)c1` (stereo not drawn), the Activity entry in test [6] and in test [2] was “<=10%” each time. As to `CC(C)CC(C#N)C(=O)NC(C)c1ccc(Cl)cc1` (stereo not drawn), the Activity entry in test [6] and in test [2] was “<=10%” each time. With `CC(NC(=O)C(C#N)CC(C)(C)C)c1ccc(Cl)cc1` (stereo not drawn), the Activity result in test [1] and in test [2] was “<=10%” in each case. In the case of `CC(NC(=O)C(C)(C#N)C(C)C)c1ccc(Cl)cc1` (stereo not drawn), the Activity entry in test [3] and in test [4] was “<=10%” each time.

For `CC(NC(=O)C(C#N)C(C)(C)C)c1ccccc1Cl` (stereo not drawn), the Activity entry in test [6] is recorded as “<=10%”. Take `CC(NC(=O)C(F)C(C)(C)C)c1ccc(Cl)cc1` (stereo not drawn): the Activity entry in test [3] and in test [4] was “<=10%” each time. On to `CC(NC(=O)C(C#N)C(C)(C)C)c1ccc(F)cc1` (stereo not drawn), for which the Activity result in test [4] and in test [2] was “<=10%” throughout. Take `CC(NC(=O)C(C#N)C(C)(C)C)c1ccc(OC(F)(F)F)cc1` (stereo not drawn): the Activity result in test [1] and in test [7] was “<=10%” in each case. Consider `CC(NC(=O)C(C#N)C1CCCCC1)c1ccc(Cl)cc1` (stereo not drawn), for which the Activity entry in test [4] and in test [2] was “<=10%” each time.

Values taken from ChEMBL document CHEMBL3045432, “Synthesis and Fungicidal Activity of -Cyanoacetamide Derivatives: Discovery of a New Rice Blast Fungicide, Diclocymet (S-2900)” (2002).
